Data taken from patent US20220401440A1, “DOSING REGIMENS FOR A PROTEIN KINASE C INHIBITOR” (IDEAYA BIOSCIENCES, INC., priority 2019, published 2022).
Like-named read-outs stand apart in the source and are kept apart here.

Key:
[1] = Hypotension studies: adverse events, single agent Compound (I) BID schedule (Table 5); format: in vivo, human
[2] = tested on: metastatic uveal melanoma (MUM); conditions: cited from earlier work
[3] = cited from earlier work; for Dose limiting toxicities (DLTs): evaluable patients
[4] = Hypotension studies: adverse events, single-agent Compound (I), 300 mg BID vs 400 mg BID with 7-day 200 mg run-in (Tables 6, 7); format: in vivo
Description: Patients with MUM were sequentially enrolled into Cohort 1 or Cohort 2. Enrollment into Cohort 2 was not initiated until enrollment into Cohort 1 was completed and the dose considered safe. • a. Cohort 1. […] Cohort 2. […] All patients continue to receive treatment with Compound (I) unless the subject experiences one or more of the following: • Adverse event • Lost to follow-up • Physician decision • Progressive disease • Study termination by the Sponsor • Patient/guardian decision • Protocol […]

[5] = Phase 1/2 study: plasma pharmacokinetics of Compound (I) in patients (LC-MS/MS, non-compartmental analysis); format: in vivo, human; conditions: 300 mg BID
Protocol: The following example presents a phase 1/2 study of Compound (I) in patients with solid tumors harboring GNAQ/11 mutations or PRKC fusions.
Patients with MUM were sequentially enrolled into Cohort 1 or Cohort 2. Enrollment into Cohort 2 was not initiated until enrollment into Cohort 1 was completed and the dose considered safe. • a. Cohort 1. 6 patients were sequentially enrolled and received 300 mg twice a day (BID), daily, for 28-day treatment cycles. • b. Cohort 2. 6 patients were sequentially enrolled and received 400 mg BID, preceded by an initial 7-day 200 mg BID run-in period, for 28-day treatment cycles. All patients continue to receive treatment with Compound (I) unless the subject experiences one or more of the following: • Adverse event • Lost to follow-up • Physician decision • Progressive disease • Study termination by the Sponsor • Patient/guardian decision • Protocol deviation • Non-compliance with protocol • Death • Pregnancy NUMBER OF SUBJECTS: 12 patients
The following example presents pharmacokinetic results from the study as described in Example 1.
Blood samples were collected on Cycle 1 Day 1 and Day 15 from patients who were administered 300 mg BID of Compound (I), and on Cycle 1 Day 8 and Day 22 from patients who were administered 200 mg BID for 7 days followed by 400 mg BID of Compound (I) for the remainder of the treatment cycle. The plasma samples were processed by protein precipitation (see Ahuja S and Dong M. W, Handbook of Pharmaceutical Analysis by HPLC, Elsevier Inc., Chapter 17, page 433, 2005) and analyzed using an LC-MS/MS method; Quantification was achieved using Compound (I) peak area to internal standard (3-amino-N-(3-(4-amino-4-(methyl-d3)piperidin-1-yl)pyridin-2-yl)-6-(3-(trifluoromethyl)pyridin-2-yl)pyrazine-2-carboxamide) peak area ratios. Concentrations of the calibration curve standards, quality control samples, and patient samples were determined by the method of 1/x^2 weighted least squares linear regression.
The Pharmacokinetic parameters were calculated using Phoenix WinNonlin software (non-compartmental analysis).

[6] = 300 mg BID, N = 18, regardless of study drug relationship
[7] = 400 mg, N = 6, regardless of study drug relationship
[8] = All BID Patients, N = 30, regardless of study drug relationship
[9] = cohort that received BID dosing of 200 to 400 mg
[10] = 300 mg BID, N = 26, regardless of study drug relationship
[11] = 400 mg BID with 7-day 200 mg run-in, N = 30
[12] = 400 mg BID with 7-day 200 mg run-in, N = 30, regardless of study drug relationship
[13] = All Patients, N = 56, regardless of study drug relationship

CC1(N)CCN(c2cccnc2NC(=O)c2nc(-c3ncccc3C(F)(F)F)cnc2N)CC1 [Compound (I), 3-amino-N-(3-(4-amino-4-methylpiperidin-1-yl)pyridin-2-yl)-6-(3-(trifluoromethyl)pyridin-2-yl)pyrazine-2-carboxamide]
Hypotension, all grades [1, 6]: 3 (16.7) | Hypotension, grade >3 [1, 6]: 0 | Hypotension, all grades [1, 7]: 4 (66.7) | Hypotension, grade >3 [1, 7]: 1 (16.7) | Hypotension, all grades [1, 8]: 7 (23.3) | Hypotension, grade >3 [1, 8]: 1 (3.3) | confirmed partial responses (PRs) ([2]; 68 patients, QD and BID, as of September 2018, preliminary): six | unconfirmed PRs ([2]; 68 patients, as of September 2018, preliminary): two | confirmed PRs [2, 9]: Four | patients with SD as best response (2 being unconfirmed PRs) [2, 9]: 18 | Dose limiting toxicities (DLTs) ([3]; BID schedule): 2 of 17 | maximum tolerated dose ([3]; BID schedule): 400 mg BID | Dose limiting toxicities (DLTs) ([3]; QD schedule): 7 of 38 | maximum tolerated dose ([3]; QD schedule): 500 mg QD | most common DLT ([3]; human, in vivo): hypotension | recommended dose for expansion (RDE) ([3]; human, in vivo): 300 mg BID | Hypotension, all grades, treatment-emergent, suspected to be study related ([4]; 300 mg BID, N = 26): 1 (3.8) n (%) | Hypotension, grade 3/4, treatment-emergent, suspected to be study related ([4]; 300 mg BID, N = 26): 0 n (%) | Hypotension, all grades [4, 10]: 1 (3.8) n (%) | Hypotension, grade 3/4 [4, 10]: 0 n (%) | Hypotension, all grades, treatment-emergent, suspected to be study related [4, 11]: 2 (6.7) n (%) | Hypotension, grade 3/4, treatment-emergent, suspected to be study related [4, 11]: 0 n (%) | Hypotension, all grades [4, 12]: 4 (13.3) n (%) | Hypotension, grade 3/4 [4, 12]: 0 n (%) | Hypotension, all grades, treatment-emergent, suspected to be study related ([4]; All Patients, N = 56): 3 (5.4) n (%) | Hypotension, grade 3/4, treatment-emergent, suspected to be study related ([4]; All Patients, N = 56): 0 n (%) | Hypotension, all grades [4, 13]: 5 (8.9) n (%) | Hypotension, grade 3/4 [4, 13]: 0 n (%) | frequency of hypotension at 400 mg BID with 200 mg run-in vs 400 mg BID alone ([4]; in vivo): less frequently | Free AUC0-12 (mean free plasma) [5]: 260 ± 95 ng·h/mL | Cmin ([5]; Cycle 1 Day 15, mean ± SD, n = 12): 790 ± 345 ng/mL | Race ([5]; mean ± SD, n = 12): 0.74 ± 0.31
